Consider 2 molecules from patent US20150366962A1 (priority 2014, published 2015).

The subject of series [1] is rHA derived from A/Vietnam/1203/2004 (VN/04). Also noted: species or system BALB/c mice. Particulars: mouse, in vivo.
In series [2] the test system is rCal/09 HA. Briefly: Cross-reactive serum IgG to Cal/09 HA after rPR/8 HA immunization. The note with it: for heteroreactive serum IgG titers versus unadjuvanted protein alone: 5 μg rPR/8 HA, rCal/09 HA substrate, 3 weeks. In kind it is in vivo, BALB/c mice.
In series [3] the test system is OVA. Briefly: OVA immunization: anti-OVA IgG1 and IgG2c by ELISA. In kind it is in vivo, C57BL/6 mice. The note with it: i.m. OVA 20 μg plus adjuvant, sera day 35.
The nature of series [4]: Histological examination for reactogenicity (H&E, injected muscle). Format: in vivo, BALB/c mice. The note with it: for inflammation at the site of injection and systemically in comparison to AddaVax: 24 h after i.m. injection; for cellular infiltration in injected muscle (H&E): i.m. without antigen, 24 h after injection. An excerpt:
Scale bars, 100 μm. […] The error bars indicate SEM.
Twenty-four hours after injection, muscle tissues at the injection sites and sera were harvested. The muscles were fixed in 10% buffered formalin and embedded in paraffin. Sections 5 μm thick were stained with hematoxylin and eosin (H&E) and examined under a microscope.

The test system of series [5] is human umbilical vein cells (HUVEC). Put plainly: Chemokine induction in HUVEC. In kind it is cell-based. As to the method: (§1) TLR7 expression in humans is limited to plasmacytoid DC and B cells, and different from the expression in mice. Conversely, TLR4 is abundantly expressed in different cell types in humans and mice. Thus, experiments were performed to determine whether 1Z105 and 1V270 could stimulate human umbilical vein cells (HUVEC) and myeloid dendritic cells.

In series [6] the test system is A/Puerto Rico/8/1934(H1N1). Also noted: species or system BALB/c mice. Particulars: mouse, in vivo.
The subject of series [7] is rHA derived from A/California/04/2009 (pH1N1). Put plainly: rHA (Cal/09) immunization: serum IgG ELISA. Format: in vivo, BALB/c mice. The note with it: 5 μg Cal/09 rHA, 3 weeks after immunization. Background: ELISA stands for enzyme-linked immunosorbent assay.
For series [8], the system named is recombinant PR8 HA. Briefly: T cell response to head and stalk segments of PR8 HA (IFNγ ELISpot or ELISA). Format: in vivo, Balb/c mice. Particulars: two immunizations two weeks apart, 6 weeks after the first.
Series [9] relates to myeloid dendritic cells. Briefly: Chemokine induction in human myeloid dendritic cells. Particulars: myeloid DC. Format: cell-based. The method, then:
as §1

The test system of series [10] is Purified CD4+ or CD8+ T cells. Briefly: Purified CD4+ or CD8+ T cell proliferation. In kind it is cell-based. Particulars: in the presence of CD3 ligation. The method, then:
Capability for induction of antigen specific CD8 T cells is one of the ideal features for adjuvants for cancer or herpes simplex virus infection. Thus, 1V270 and 1Z105 were examined to determine whether the agonists can directly induce T cell proliferation. Purified CD4+ or CD8+ T cells were incubated with 1Z105, 1V270 alone or in combination.

In series [11] the test system is rPR/8 HA. Briefly: rPR/8 HA single immunization: serum antibody ELISA. In kind it is in vivo, BALB/c mice. The note with it: for seroconversion to rPR/8 HA (total IgG, IgG1, IgG2a): 5 μg rPR/8 HA i.m. day 0, sera days 7, 14, 21; for total serum IgG reactive to antigen, long term / IgG2a/IgG1 ratio (Th1-Th2 immune balance): 5 μg rPR/8 HA; for total serum IgG reactive to antigen, long term: bled every 3 weeks up to 18 weeks; for IgG2a/IgG1 ratio (Th1-Th2 immune balance): single immunization.

In series [12] the test system is PR/8 virus / PR/8 HA. Put plainly: Long-term memory response after rPR/8 HA: HAI titers, B cell and IFN-γ ELISpot. Format: in vivo, BALB/c mice. The method, then:
(A) BALB/c mice were i.m. immunized with rPR/8 HA (5 μg/animal) on day 0 with the indicated adjuvant or vehicle, and sera were collected every 3 weeks (red drops). (B) Levels of antigen-specific total IgG were measured by ELISA. (C) The serum HAI titer to PR/8 virus was assayed at 6 weeks after immunization, with a detection limit of 1:40 serum dilution; nd, not detectable. (D and E) Eighteen weeks after immunization, mice (n=5/group) were administered 10 mLD50 of PR/8 virus and monitored for morbidity, as measured by body weight loss (D), and mortality (E) induced by the viral challenge. […]
AddaVax was used at a 1:1 ratio with antigen in PBS. […] IFN-γ spot-forming cells were detected with the IFN-γ ELISpot ALP kit (3321-2A; Mabtech, Cincinnati, Ohio). Antigen specific B cells from splenocytes were quantified 5 days after reexposure to antigen (5 μg of rPR/8HAin PBS only administered i.m.) by plating them on ELISpot plates coated with rPR/8 protein (Strep tag purified) for 20 h, and detection of secreted antibody was performed with an anti-mouse IgG secondary antibody conjugated to horseradish peroxidase (HRP).
Anti-OVA antibodies of the IgG subclasses IgG1 and IgG2c were measured by ELISA. Each ELISA plate contained a titration of a previously quantitated serum to generate a standard curve. […] Total IgG, IgG1, and IgG2a were detected.

Series [13] has as its system PBMC. Briefly: IL-8 release by human PBMC. Format: cell-based. The text has this: To confirm the activities of 1Z105/1V270 combined adjuvant in human cells, PBMC were stimulated with these agonists.

SMILES strings stand for the structures.

Regarding `CCCCCCCCC=CCCCCCCCC(=O)OCC(COP(=O)(O)OCCNC(=O)c1ccc(Cn2c(=O)[nH]c3c(N)nc(OCCOC)nc32)cc1)OC(=O)CCCCCCCC=CCCCCCCCC` (stereo not drawn) [Compound 1V270], the IgG seroresponse entry in series [1] is listed as “enhanced”. Further, in [2], the “heteroreactive serum IgG titers versus unadjuvanted protein alone” value is given as “significantly higher”. For the same molecule, in series [3], the “serum anti-OVA IgG1 titers versus OVA alone” value is recorded as “did not induce IgG1 comparably to 1Z105” and the “serum anti-OVA IgG2c titers versus OVA alone” value was “significantly higher IgG2c titers”. Further, in [4], the “inflammation at the site of injection and systemically in comparison to AddaVax” value is “minimal inflammation”; the “cellular infiltration in injected muscle (H&E)” value is listed as “minimal cellular infiltration”. In addition, the “induction of chemokines MCP-1 and IL-8” value in series [5] is given as “minimal effects”. For the same molecule, in series [6], the mortality result is listed as “provided protective efficacy”, the “survival after the lethal challenge” value was 100%, the weight loss entry is “significantly reduced weight loss” and the “weight loss compared to AddaVax” value is “restricted weight loss compared to AddaVax”. The IgG seroresponse entry in series [7] is listed as “enhanced”. Moreover, in series [8], the “T cell response against the head segment (pool 1-2) of HA” value is listed as “highly induced T cell response” and the “stalk-specific (pool 3-4) T cell responses” value is reported as “also induced stalk-specific (pool 3-4) T cell responses”. Besides, the “induction of chemokines MCP-1 and IL-8” value in series [9] is on record as “minimal effects”. In [10], the “purified CD4+ or CD8+ T cell proliferation” value was “enhanced purified CD4+ or CD8+T cell proliferation”. For the same molecule, in [11], the “seroconversion to rPR/8 HA (total IgG, IgG1, IgG2a)” value is reported as “induced rapid seroconversion”; the “total serum IgG reactive to antigen, long term” value is “induced a robust and sustained IgG response”; the “IgG2a/IgG1 ratio (Th1-Th2 immune balance)” value is “induced both IgG1 and IgG2a in a more balanced Th1-Th2-type response”. Besides, in series [12] (splenocytes 6 months after immunization, PR/8 HA peptide pool overnight), the “antigen-specific IFN-γ-producing T cells (ELISpot)” value is “induced antigen-specific IFN-γ T cells that were long lived”. For the same molecule, in series [13], the “IL-8 release by PBMC” value was “minimal levels of IL-8”.

Turning to `Cn1c2ccccc2c2nc(SCC(=O)NC3CCCCC3)n(-c3ccccc3)c(=O)c21` [Compound 1Z105], the IgG seroresponse result in [1] is listed as “enhanced”. Also, the “heteroreactive serum IgG titers versus unadjuvanted protein alone” value in [2] is on record as “significantly higher”. Besides, the “subtypes of cross-reactive antibodies (IgG2a/IgG1)” value in series [2] (antibodies cross-reactive to Cal/09 HA) is “produced predominately IgG1”. Moreover, the “serum anti-OVA IgG1 titers versus OVA alone” value in [3] is recorded as “significantly higher”. Also, in [4], the “inflammation at the site of injection and systemically in comparison to AddaVax” value is reported as “minimal inflammation”; the “cellular infiltration in injected muscle (H&E)” value is “minimal cellular infiltration”. Further, in [5], the “induction of chemokines MCP-1 and IL-8” value is “induced the chemokines MCP-1, and IL-8”. For the same molecule, in [6], the mortality entry is listed as “provided protective efficacy”, the “mortality compared to no-adjuvant control receiving 5 μg of rHA” value is on record as “significantly minimized”, the “survival after the lethal challenge” value is given as 100% and the weight loss entry was “significantly reduced weight loss”. In addition, the IgG seroresponse entry in series [7] is “enhanced”. Further, the “T cell response against the head segment (pool 1-2) of HA” value in series [8] is reported as “highly induced T cell response”. The “induction of chemokines MCP-1 and IL-8” value in series [9] is “induced the chemokines MCP-1, and IL-8”. Besides, in series [10], the “purified CD4+ or CD8+ T cell proliferation” value is on record as “enhanced purified CD4+ or CD8+T cell proliferation”. In addition, in [11], the “seroconversion to rPR/8 HA (total IgG, IgG1, IgG2a)” value is given as “induced rapid seroconversion”; the “total serum IgG reactive to antigen, long term” value is “induced a robust and sustained IgG response”; the “IgG2a/IgG1 ratio (Th1-Th2 immune balance)” value is “produced predominately IgG1 in a Th2-type response”. Besides, the “difference in serum IgG endpoint titers among rHA doses (antigen sparing)” value in series [11] (5, 1 or 0.2 μg rPR/8 HA, 3 weeks after immunization) is reported as “no significant difference”. In [12] (5 days after reexposure versus preboost), the “fold increase in HAI titer induced by the boost” value is “significant only in the 1Z105 group”. In series [13], the “IL-8 release by PBMC” value is given as “minimal levels of IL-8”.
